Data: ChEMBL document CHEMBL3872214, “Synthesis and evaluation of in vivo antioxidant, in vitro antibacterial, MRSA and antifungal activity of novel substituted isatin N-(2,3,4,6-tetra-O-acetyl-β-d-glucopyranosyl)thiosemicarbazones” (Eur J Med Chem, 2016)
Converted amounts (≈) assume the structure as drawn.

Test system: Staphylococcus epidermidis
Test: Antibacterial activity against Staphylococcus epidermidis ATCC 12228 after 18 to 20 hrs by two-fold microbroth dilution method
Type: functional
Conditions: not given

Compound	MIC [µM]
CC(=O)OC[C@H]1O[C@@H](NC(=S)N/N=C2/C(=O)Nc3ccc(Cl)cc32)[C@H](OC(C)=O)[C@@H](OC(C)=O)[C@@H]1OC(C)=O	6.25 (≈ 3.66 µg/mL)
CCCCN1C(=O)/C(=N/NC(=S)N[C@@H]2O[C@H](COC(C)=O)[C@@H](OC(C)=O)[C@H](OC(C)=O)[C@H]2OC(C)=O)c2ccccc21	100 (≈ 60.7 µg/mL)

Test system: Rattus norvegicus
Test: (§1) Antioxidant activity in CCL4-intoxicated Wistar albino rat assessed as liver cytosolic glutathione peroxidase activity per mg protein at 100 mg/kg, ip administered for 7 consecutive days after DL-alpha-tocopherol acetate treatment followed by CCL4 dosing measured after 24 hrs by H2O2 based spectrophotometric analysis (reference value: 0.28 +/- 0.01 U)
Type: functional
Conditions: not given

Compound	Activity [U]
CC(=O)OC[C@H]1O[C@@H](NC(=S)N/N=C2/C(=O)Nc3ccc(Cl)cc32)[C@H](OC(C)=O)[C@@H](OC(C)=O)[C@@H]1OC(C)=O	0.31
CCCCN1C(=O)/C(=N/NC(=S)N[C@@H]2O[C@H](COC(C)=O)[C@@H](OC(C)=O)[C@H](OC(C)=O)[C@H]2OC(C)=O)c2ccccc21	0.93

Test system: Escherichia coli
Test: Antibacterial activity against Escherichia coli ATCC 25922 after 18 to 20 hrs by two-fold microbroth dilution method
Type: functional
Conditions: not given

Compound	MIC [µM]
CC(=O)OC[C@H]1O[C@@H](NC(=S)N/N=C2/C(=O)Nc3ccc(Cl)cc32)[C@H](OC(C)=O)[C@@H](OC(C)=O)[C@@H]1OC(C)=O	50 (≈ 29.2 µg/mL)
CCCCN1C(=O)/C(=N/NC(=S)N[C@@H]2O[C@H](COC(C)=O)[C@@H](OC(C)=O)[C@H](OC(C)=O)[C@H]2OC(C)=O)c2ccccc21	12.5 (≈ 7.58 µg/mL)

Test system: not listed separately
Test: Antifungal activity against Saccharomyces cerevisiae SH20 after 72 hrs by agar dilution method
Type: functional
Conditions: not given

Compound	MIC [µM]
CC(=O)OC[C@H]1O[C@@H](NC(=S)N/N=C2/C(=O)Nc3ccc(Cl)cc32)[C@H](OC(C)=O)[C@@H](OC(C)=O)[C@@H]1OC(C)=O	12.5 (≈ 7.31 µg/mL)
CCCCN1C(=O)/C(=N/NC(=S)N[C@@H]2O[C@H](COC(C)=O)[C@@H](OC(C)=O)[C@H](OC(C)=O)[C@H]2OC(C)=O)c2ccccc21	100 (≈ 60.7 µg/mL)

Test system: Aspergillus niger
Test: Antifungal activity against Aspergillus niger 439 after 72 hrs by agar dilution method
Type: functional
Conditions: Aspergillus niger, 439, 72 h

Compound	MIC [µM]
CC(=O)OC[C@H]1O[C@@H](NC(=S)N/N=C2/C(=O)Nc3ccc(Cl)cc32)[C@H](OC(C)=O)[C@@H](OC(C)=O)[C@@H]1OC(C)=O	12.5 (≈ 7.31 µg/mL)
CCCCN1C(=O)/C(=N/NC(=S)N[C@@H]2O[C@H](COC(C)=O)[C@@H](OC(C)=O)[C@H](OC(C)=O)[C@H]2OC(C)=O)c2ccccc21	100 (≈ 60.7 µg/mL)

Test system: Candida albicans
Test: Antifungal activity against Candida albicans ATCC 7754 after 72 hrs by agar dilution method
Type: functional
Conditions: ATCC 7754, 72 h

Compound	MIC [µM]
CC(=O)OC[C@H]1O[C@@H](NC(=S)N/N=C2/C(=O)Nc3ccc(Cl)cc32)[C@H](OC(C)=O)[C@@H](OC(C)=O)[C@@H]1OC(C)=O	12.5 (≈ 7.31 µg/mL)
CCCCN1C(=O)/C(=N/NC(=S)N[C@@H]2O[C@H](COC(C)=O)[C@@H](OC(C)=O)[C@H](OC(C)=O)[C@H]2OC(C)=O)c2ccccc21	100 (≈ 60.7 µg/mL)

Test system: Klebsiella pneumoniae
Test: Antibacterial activity against Klebsiella pneumoniae ATCC 4352 after 18 to 20 hrs by two-fold microbroth dilution method
Type: functional
Conditions: not given

Compound	MIC [µM]
CC(=O)OC[C@H]1O[C@@H](NC(=S)N/N=C2/C(=O)Nc3ccc(Cl)cc32)[C@H](OC(C)=O)[C@@H](OC(C)=O)[C@@H]1OC(C)=O	50 (≈ 29.2 µg/mL)
CCCCN1C(=O)/C(=N/NC(=S)N[C@@H]2O[C@H](COC(C)=O)[C@@H](OC(C)=O)[C@H](OC(C)=O)[C@H]2OC(C)=O)c2ccccc21	12.5 (≈ 7.58 µg/mL)

Test system: Pseudomonas aeruginosa
Test: Antibacterial activity against Pseudomonas aeruginosa […] after 18 to 20 hrs by two-fold microbroth dilution method
Type: functional
Conditions: not given

Compound	MIC [µM]
CC(=O)OC[C@H]1O[C@@H](NC(=S)N/N=C2/C(=O)Nc3ccc(Cl)cc32)[C@H](OC(C)=O)[C@@H](OC(C)=O)[C@@H]1OC(C)=O	50 (≈ 29.2 µg/mL)
CCCCN1C(=O)/C(=N/NC(=S)N[C@@H]2O[C@H](COC(C)=O)[C@@H](OC(C)=O)[C@H](OC(C)=O)[C@H]2OC(C)=O)c2ccccc21	12.5 (≈ 7.58 µg/mL)

Test system: Rattus norvegicus
Test: as §1, with “catalase” for “glutathione peroxidase”, “assay” for “spectrophotometric analysis”, “220.15” for “0.28”, “11.43” for “0.01”
Type: functional
Conditions: not given

Compound	Activity [U]
CC(=O)OC[C@H]1O[C@@H](NC(=S)N/N=C2/C(=O)Nc3ccc(Cl)cc32)[C@H](OC(C)=O)[C@@H](OC(C)=O)[C@@H]1OC(C)=O	390.63
CCCCN1C(=O)/C(=N/NC(=S)N[C@@H]2O[C@H](COC(C)=O)[C@@H](OC(C)=O)[C@H](OC(C)=O)[C@H]2OC(C)=O)c2ccccc21	377.61

Test system: Klebsiella aerogenes
Test: Antibacterial activity against Enterobacter aerogenes ATCC 13048 after 18 to 20 hrs by two-fold microbroth dilution method
Type: functional
Conditions: not given

Compound	MIC [µM]
CC(=O)OC[C@H]1O[C@@H](NC(=S)N/N=C2/C(=O)Nc3ccc(Cl)cc32)[C@H](OC(C)=O)[C@@H](OC(C)=O)[C@@H]1OC(C)=O	50 (≈ 29.2 µg/mL)
CCCCN1C(=O)/C(=N/NC(=S)N[C@@H]2O[C@H](COC(C)=O)[C@@H](OC(C)=O)[C@H](OC(C)=O)[C@H]2OC(C)=O)c2ccccc21	12.5 (≈ 7.58 µg/mL)

Test system: Rattus norvegicus
Test: as §1, with “superoxide dismutase” for “glutathione peroxidase”, “xanthine” for “H2O2”, “assay” for “spectrophotometric analysis”, “5.27” for “0.28”, “0.22” for “0.01”
Type: functional
Conditions: not given

Compound	Activity [U]
CC(=O)OC[C@H]1O[C@@H](NC(=S)N/N=C2/C(=O)Nc3ccc(Cl)cc32)[C@H](OC(C)=O)[C@@H](OC(C)=O)[C@@H]1OC(C)=O	10.2
CCCCN1C(=O)/C(=N/NC(=S)N[C@@H]2O[C@H](COC(C)=O)[C@@H](OC(C)=O)[C@H](OC(C)=O)[C@H]2OC(C)=O)c2ccccc21	9.89

Test system: Staphylococcus aureus
Test: Antibacterial activity against Staphylococcus aureus ATCC 11632 after 18 to 20 hrs by two-fold microbroth dilution method
Type: functional
Conditions: not given

Compound	MIC [µM]
CC(=O)OC[C@H]1O[C@@H](NC(=S)N/N=C2/C(=O)Nc3ccc(Cl)cc32)[C@H](OC(C)=O)[C@@H](OC(C)=O)[C@@H]1OC(C)=O	6.25 (≈ 3.66 µg/mL)
CCCCN1C(=O)/C(=N/NC(=S)N[C@@H]2O[C@H](COC(C)=O)[C@@H](OC(C)=O)[C@H](OC(C)=O)[C@H]2OC(C)=O)c2ccccc21	100 (≈ 60.7 µg/mL)

Test system: not listed separately
Test: Antifungal activity against Fusarium oxysporum M42 after 72 hrs by agar dilution method
Type: functional
Conditions: not given

Compound	MIC [µM]
CC(=O)OC[C@H]1O[C@@H](NC(=S)N/N=C2/C(=O)Nc3ccc(Cl)cc32)[C@H](OC(C)=O)[C@@H](OC(C)=O)[C@@H]1OC(C)=O	12.5 (≈ 7.31 µg/mL)
CCCCN1C(=O)/C(=N/NC(=S)N[C@@H]2O[C@H](COC(C)=O)[C@@H](OC(C)=O)[C@H](OC(C)=O)[C@H]2OC(C)=O)c2ccccc21	100 (≈ 60.7 µg/mL)

Test system: Staphylococcus aureus
Test: Antibacterial activity against methicillin-resistant Staphylococcus aureus 198-1 after 18 to 20 hrs by two-fold microbroth dilution method
Type: functional
Conditions: not given

Compound	MIC [µM]
CC(=O)OC[C@H]1O[C@@H](NC(=S)N/N=C2/C(=O)Nc3ccc(Cl)cc32)[C@H](OC(C)=O)[C@@H](OC(C)=O)[C@@H]1OC(C)=O	0.78 (≈ 0.456 µg/mL)
CCCCN1C(=O)/C(=N/NC(=S)N[C@@H]2O[C@H](COC(C)=O)[C@@H](OC(C)=O)[C@H](OC(C)=O)[C@H]2OC(C)=O)c2ccccc21	100 (≈ 60.7 µg/mL)

Test system: Staphylococcus aureus
Test: Antibacterial activity against methicillin-resistant Staphylococcus aureus 198-2 after 18 to 20 hrs by two-fold microbroth dilution method
Type: functional
Conditions: not given

Compound	MIC [µM]
CC(=O)OC[C@H]1O[C@@H](NC(=S)N/N=C2/C(=O)Nc3ccc(Cl)cc32)[C@H](OC(C)=O)[C@@H](OC(C)=O)[C@@H]1OC(C)=O	0.78 (≈ 0.456 µg/mL)
CCCCN1C(=O)/C(=N/NC(=S)N[C@@H]2O[C@H](COC(C)=O)[C@@H](OC(C)=O)[C@H](OC(C)=O)[C@H]2OC(C)=O)c2ccccc21	100 (≈ 60.7 µg/mL)

Test system: Staphylococcus aureus
Test: Antibacterial activity against methicillin-resistant Staphylococcus aureus 198-3 after 18 to 20 hrs by two-fold microbroth dilution method
Type: functional
Conditions: not given

Compound	MIC [µM]
CC(=O)OC[C@H]1O[C@@H](NC(=S)N/N=C2/C(=O)Nc3ccc(Cl)cc32)[C@H](OC(C)=O)[C@@H](OC(C)=O)[C@@H]1OC(C)=O	0.78 (≈ 0.456 µg/mL)
CCCCN1C(=O)/C(=N/NC(=S)N[C@@H]2O[C@H](COC(C)=O)[C@@H](OC(C)=O)[C@H](OC(C)=O)[C@H]2OC(C)=O)c2ccccc21	100 (≈ 60.7 µg/mL)

Test system: Bacillus subtilis
Test: Antibacterial activity against Bacillus subtilis ATCC 11774 after 18 to 20 hrs by two-fold microbroth dilution method
Type: functional
Conditions: not given

Compound	MIC [µM]
CC(=O)OC[C@H]1O[C@@H](NC(=S)N/N=C2/C(=O)Nc3ccc(Cl)cc32)[C@H](OC(C)=O)[C@@H](OC(C)=O)[C@@H]1OC(C)=O	6.25 (≈ 3.66 µg/mL)
CCCCN1C(=O)/C(=N/NC(=S)N[C@@H]2O[C@H](COC(C)=O)[C@@H](OC(C)=O)[C@H](OC(C)=O)[C@H]2OC(C)=O)c2ccccc21	100 (≈ 60.7 µg/mL)
